Assay results: US12297457B2, “Esophageal tissue and/or organoid compositions and methods of making same” (Children's Hospital Medical Center, priority 2017, dated 2025)
Entries after “also recorded” stand apart in the source; their conditions may differ.

Assays:
Assay type in all cases: cell-based, human
CDX2-induced HEOs = assay: Notch inhibition in CDX2-induced HEOs (qPCR, IF); conditions: d58 HEOs
Description: Human embryonic stem cell (hESC) line H1 (WA01, person) were purchased from WiCell. iPSC line iPS106 was generated in-house and approved by the institutional review board at CCHMC. All hPSCs were maintained on feeder-free cultures: cells were plated on hESC-qualified Matrigel (BD Biosciences, San Jose, Calif.) and maintained at 37° C. with 5% CO2 with daily replacement of mTeSR1 media (STEMCELL Technologies, Vancouver, Canada); cells were passaged routinely every 4 days using Dispase (STEMCELL Technologies). The HA-tagged SOX2, CDX2, or FANCA dox-inducible lines were generated by first cloning the human SOX2 ORF, CDX2 ORF, or FANCA ORF into pINDUCER20 (respectively) (Addgene #44012, Meerbrey et al., 2011). Next, lentivirus was generated with help of the Viral Vector Core Facility at CCHMC. The lentivirus for HA-SOX2 and CDX2 were transduced into hESCs with 2 μL of virus; these lines were maintained on selection with mTeSR1 and G418 (500 μg mL-1, ThermoFisher Scientific). The lentivirus for FANCA were transduced prior to the iPS106 line generation, as FANCA is required for maintenance of hPSC properties. The hESC H1 line (and transduced derivatives) was used in all experiments excluding Fanconi Anemia modeling in HEOs, which used the iPS106 line.
(§1) For the generation of anterior foregut spheroids, from definitive endoderm, cells were treated with Wnt3a (500 ng mL-1, R&D systems) for 2 days, and FGF4 (500 ng mL-1, R&D systems), Noggin (200 ng mL-1) for 3 days in RPMI 1640 with 2% dFBS. Three-dimensional culture and differentiation of anterior foregut spheroids into human esophageal organoids were obtained as described above.
Tissue cultures were fixed with 4% paraformaldehyde at either room temperature for 15 minutes (for monolayer cultures), or 4° C. for overnight (for organoids). […]
Monolayer cultures and organoids were harvested in total, including the plated/embedding matrigel. […] For qRT-PCR, Applicant used Quantitect SYBR-Green master mix (Qiagen) and ran the reaction on a QuantStudio 6 machine (ThermoFisher Scientific).

HEOs [1] = assay: IL-13 treatment of HEOs, eosinophilic esophagitis model (qPCR, Western blot, IF, EdU, H&E, electron microscopy)
Description: (§2) Anterior foregut spheroids were transferred into 50 μL droplets of Matrigel, and are cultured for 3-58 days in the base (“Gut”) media of Advanced DMEM/F12 (ThermoFisher Scientific) supplemented with B27 supplement (1×, ThermoFisher Scientific), N2 supplement (1×, ThermoFisher Scientific), HEPES (13 mM, ThermoFisher Scientific), L-Glutamine (2 mM ThermoFisher Scientific), penicillin/streptomycin (1×, ThermoFisher Scientific), and EGF (100 ng mL^−1, R&D systems). In addition to this base media, the first three days were supplemented with Noggin (200 ng mL^−1), FGF10 (50 ng mL^−1), and CultureOne supplement (1×, ThermoFisher Scientific). FGF10 and CultureOne supplementation is continued until the end of the first week in three-dimensional culture. Media was replaced every 3-4 days. For EdU labeling, media was supplemented with EdU (10 μM Invitrogen) for a defined period of time, and was removed by washing with sterile PBS twice before replacing with media without EdU.
as §1
(§3) Tissue cultures were fixed with 4% paraformaldehyde at either room temperature for 15 minutes (for monolayer cultures), or 4° C. for overnight (for organoids). Tissues were thoroughly washed in PBS and stained for monolayer cultures, while organoids were thoroughly washed and then left in 30% sucrose overnight, embedded in OCT compound (VWR), and sectioned at a thickness of 8 μm. Slides were then permeabilized with 0.5% TritonX-100 in PBS for 10 minutes, blocked in 5% normal donkey serum (Jackson ImmunoResearch) for 1 hour minimum, and incubated in primary antibody overnight at 4° C. On the next day, slides were thoroughly washed in PBS, incubated in secondary antibody (at 1:500) for 1 hour, and then thoroughly washed again. For EdU visualization, the Click-iT EdU Alexa Fluor 488 Imaging Kit (Invitrogen) was used prior to blocking.
(§4) Monolayer cultures and organoids were harvested in total, including the plated/embedding matrigel. Total RNA was isolated using the NucleoSpin RNA kit (Macherey-Nagel) and reverse transcribed to cDNA using the SuperScript VILO cDNA synthesis kit (ThermoFisher Scientific). For qRT-PCR, Applicant used Quantitect SYBR-Green master mix (Qiagen) and ran the reaction on a QuantStudio 6 machine (ThermoFisher Scientific).

foregut spheroids = assay: Anterior-posterior patterning of foregut spheroids (qPCR, IF); conditions: for regional identity of foregut spheroids (HNF1β, SOX2, PROX1, HNF6): shorter duration of treatment following DE formation, day 6 spheroids
Description: Confluent hPSC cultures were treated with Acutase (STEMCELL Technologies) to resuspend as single cells in mTeSR1 and Y-27632 (10 μM, Tocris) and plated on Matrigel. On the following day, differentiation into definitive endoderm was carried out as previously described (McCracken et al., 2014). Briefly, cells were treated with Activin A (100 ng mL-1, R&D systems, Minneapolis, Minn.) and BMP4 (50 ng mL-1, R&D systems) on the first day in RPMI 1640 media (Life Technologies). Cells in the following two days were treated with only Activin A (100 ng mL-1) in RPMI 1640 with increasing concentrations 0.2% and 2% of HyClone defined fetal bovine serum (dFBS, GE Healthcare Life Sciences).
For anterior foregut monolayer cultures, cells were treated for 3 days in Noggin (200 ng mL-1) in RPMI 1640 with 2% dFBS, with all-trans retinoic acid (2 μM, Sigma, St. Louis, Mo.) the 3rd day.
(§5) Alternately, for the generation of anterior foregut spheroids, from definitive endoderm, cells were treated with FGF4 (500 ng mL-1, R&D systems), Noggin (200 ng mL-1) for 3 days in RPMI 1640 with 2% dFBS. Additional factors were tested during this time (described in results), such as CHIR99021 (“chiron” or “chr”, 2 μM, Tocris), Wnt3a (500 ng mL-1, R&D systems), SB431542 (10 μM, Tocris), DEAB (10 μM, Sigma), and retinoic acid (2 μM).
Tissue cultures were fixed with 4% paraformaldehyde at either room temperature for 15 minutes, 4° C. for 2 hours for cryosectioning, or 4° C. overnight for paraffin embedding/sectioning and mouse embryos. For paraffin embedding and sectioning, following fixation, tissues were dehydrated and embedded into paraffin blocks. Afterwards, paraffin-sectioned slides were deparaffinized and subjected to antigen retrieval in 10 mM sodium citrate for 30 minutes prior to staining. For cryosectioning, tissues were thoroughly washed in PBS, left in 30% sucrose overnight, embedded in OCT compound (VWR), and sectioned at a thickness of 8 μm. Commonly, slides were then permeabilized with 0.5% TritonX-100 in PBS for 10 minutes, blocked in 5% normal donkey serum (Jackson ImmunoResearch) for 1 hour, and incubated in primary antibody overnight at 4° C. On the next day, slides were thoroughly washed in PBS, incubated in secondary antibody (at 1:500) for 1 hour, and then thoroughly washed again. For EdU visualization, Applicant used the Click-iT EdU Alexa Fluor 488 Imaging Kit (Invitrogen) prior to blocking. For wholemount immunofluorescence staining, embryos were placed in 100% methanol immediately after fixation. Embryos were then permeabilized with Dent's Bleach (4:1:1 MeOH:DMSO:30% H2O2) for 2 hours at room temperature, rehydrated with methanol washes, and blocked for several hours at room temperature to overnight at 4° C. Primary antibodies were applied and embryos incubated overnight at 4° C. Then, embryos were thoroughly washed in 0.1% TritonX-100 in PBS before incubating in secondary antibodies overnight at 4° C. Finally, embryos were washed again, dehydrated with methanol washes, and cleared with Murray's Clear (2:1 benzyl benzoate:benzyl alcohol, Sigma) at least 15 minutes prior to imaging. For a list of antibodies and dilutions used, please see Table 2.
Spheroid and organoids were harvested in total, including the embedding matrigel. Collagen plugs from the organotypic raft cultures were first removed from the transwell on day 14, and subsequently harvested in total. Total RNA was isolated using the NucleoSpin RNA kit (Macherey-Nagel) and reverse transcribed to cDNA using the SuperScript VILO cDNA synthesis kit (ThermoFisher Scientific). For qRT-PCR, Applicant used Quantitect SYBR-Green master mix (Qiagen) and ran the reaction on a QuantStudio 6 machine (ThermoFisher Scientific). For a list of primers used, please see Table 1.

HEOs [2] = assay: BMP activation in late stage HEOs (IF, EdU, qPCR)
Description: as §2, §1, §3, §4

AFG spheroids = assay: Dorsal-ventral patterning / respiratory induction of anterior foregut spheroids (qPCR, IF); conditions: day 6 AFG spheroids treated 3 days; analysed day 9
Description: as §5
Anterior foregut spheroids were transferred into 50 μL droplets of Matrigel, and are cultured for 3-58 days in the base (“Gut”) media of Advanced DMEM/F12 (ThermoFisher Scientific) supplemented with B27 supplement (1×, ThermoFisher Scientific), N2 supplement (1×, ThermoFisher Scientific), HEPES (13 mM, ThermoFisher Scientific), L-Glutamine (2 mM ThermoFisher Scientific), penicillin/streptomycin (1×, ThermoFisher Scientific), and EGF (100 ng mL^−1, R&D systems). In addition to this base media, the first three days were supplemented with Noggin (200 ng mL^−1), FGF10 (50 ng mL^−1), and CultureOne supplement (1×, ThermoFisher Scientific). […]
Spheroid and organoids were harvested in total, including the embedding matrigel. […] For qRT-PCR, Applicant used Quantitect SYBR-Green master mix (Qiagen) and ran the reaction on a QuantStudio 6 machine (ThermoFisher Scientific). […]

[3] = 6-week-old HEOs, BMP4 100 ng/mL for additional 2 weeks

Molecule: C[C@H](NC(=O)Cc1cc(F)cc(F)c1)C(=O)N[C@H](C(=O)OC(C)(C)C)c1ccccc1 [DAPT]
- KRT5 expression (CDX2-induced HEOs; CDX2-induction plus DAPT): further downregulated
- KRT13 expression, effect added to CDX2-induction (CDX2-induced HEOs; CDX2-induction plus DAPT): does not appear to be a synergistic effect
- HESS (Notch target gene) expression (CDX2-induced HEOs; qPCR): downregulated

Molecule: IL-13: a cytokine known to enact broad changes in the esophagus
- epithelial morphology by electron microscopy (HEOs [1]; IL-13 100 ng/mL for 2 weeks): increased spaces between individual cells and a decrease in cell-cell contacts
- EdU incorporation in the basal-most p63+ cells (HEOs [1]; IL-13 100 ng/mL for 2 weeks, EdU 2 days): increased
- BMP antagonists NOG and FST expression (HEOs [1]; IL-13 100 ng/mL for 2 weeks, qPCR): did not upregulate
- epithelial morphology (HEOs [1]; IL-13 100 ng/mL for 2 weeks, IF, H&E): dilated intercellular spaces suprabasally
- late differentiation and structural proteins (HEOs [1]; IL-13 100 ng/mL, 1-2 weeks): downregulated late differentiation and structural proteins DSG1, IVL, and CRNN
- PTCH1 expression (read-out for hedgehog signaling) (HEOs [1]; IL-13 alone): upregulates
- BMP target gene ID3 expression (HEOs [1]; day 62 HEOs, qPCR): mild increase
- IL-13 target gene response (HEOs [1]; extended treatment (100 ng/mL, 1 week), Western blot): maintained upregulation of some target genes SERPINB13 and CDH26
- IL-13 target gene response (HEOs [1]; short duration (2 days prior to harvest), day 62 HEOs, qPCR): validated the response of target genes CCL26, CDH26, CAPN14, and SERPINB4

Molecule: Cc1c[nH]c(-c2cnc(NCCNc3ccc(C#N)cn3)nc2-c2ccc(Cl)cc2Cl)n1 [chiron, CHIR99021]
- gene expression profile of spheroids, chiron versus Wnt3a (foregut spheroids; one day of chiron treatment, qPCR): same gene expression profile as those generated with 2 days of Wnt3a
- regional identity of foregut spheroids (HNF1β, SOX2, PROX1, HNF6) (foregut spheroids): formation of anterior foregut (AFG) spheroids expressing HNF1β and SOX2, with low levels of posterior foregut markers PROX1 and HNF6

Molecule: CC1=C(/C=C/C(C)=C/C=C/C(C)=C/C(=O)O)C(C)(C)CCC1 [RA, all-trans retinoic acid]
- marker expression after RA treatment (foregut spheroids; 1 day of RA): promotes expression of TP63 and KRT4 and not posterior foregut markers GATA4 and PDX1; also recorded: spheroids that express TP63
- marker expression after RA treatment (foregut spheroids; RA for 4 days): express posterior foregut markers, GATA4 and PDX1

Molecule: CCN(CC)c1ccc(C=O)cc1 [DEAB]
- TP63 and pharyngeal marker expression of spheroids (foregut spheroids; cultures containing DEAB (blocking RA synthesis)): spheroids with minimal TP63 expression and increased levels of the pharyngeal markers PAX9 and OTX2

B1: Wnt3a: recombinant human Wnt3a, Wnt ligand (protein, UniProt P56704 19-352, looked up)
Protein Wnt-3a: SYPIWWSLAVGPQYSSLGSQPILCASIPGLVPKQLRFCRNYVEIMPSVAEGIKIGIQECQHQFRGRRWNCTTVHDSLAIFGPVLDKATRESAFVHAIASAGVAFAVTRSCAEGTAAICGCSSRHQGSPGKGWKWGGCSEDIEFGGMVSREFADARENRPDARSAMNRHNNEAGRQAIASHMHLKCKCHGLSGSCEVKTCWWSQPDFRAIGDFLKDKYDSASEMVVEKHRESRGWVETLRPRYTYFKVPTERDLVYYEASPNFCEPNPETGSFGTRDRTCNVSSHGIDGCDLLCCGRGHNARAERRREKCRCVFHWCCYVSCQECTRVYDVHTCK
- regional identity of foregut spheroids (HNF1β, SOX2, PROX1, HNF6) (foregut spheroids): formation of anterior foregut (AFG) spheroids expressing HNF1β and SOX2, with low levels of posterior foregut markers PROX1 and HNF6

B2: BMP4: recombinant human BMP4 (protein, UniProt P12644 293-408, looked up)
Bone morphogenetic protein 4: SPKHHSQRARKKNKNCRRHSLYVDFSDVGWNDWIVAPPGYQAFYCHGDCPFPLADHLNSTNHAIVQTLVNSVNSSIPKACCVPTELSAISMLYLDEYDKVVLKNYQEMVVEGCGCR
- state of remaining basal cells (pSMAD1/5/9, p63, SOX2) (HEOs [2]; [3]): have active BMP signaling (pSMAD1/5/9+) and express p63, but loss expression of SOX2
- stratification and differentiation markers (HEOs [2]; [3]): loss of stratification and expression of differentiation markers
- EdU incorporation (HEOs [2]; BMP4 treated HEOs, day 62): minimal EdU incorporation
- CDX2 expression (HEOs [2]; BMP4 treated HEOs, data not shown): unchanged

B3: Noggin: recombinant human Noggin, used to inhibit BMP signaling (protein, UniProt Q13253 28-232, looked up)
Noggin: QHYLHIRPAPSDNLPLVDLIEHPDPIFDPKEKDLNETLLRSLLGGHYDPGFMATSPPEDRPGGGGGAAGGAEDLAELDQLLRQRPSGAMPSEIKGLEFSEGLAQGKKQRLSKKLRRKLQMWLWSQTFCPVLYAWNDLGSRFWPRYVKVGSCFSKRSCSVPEGMVCKPSKSVHLTVLRWRCQRRGGQRCGWIPIQYPIISECKCSC
- dorsal-ventral marker expression (NKX2-1, SOX2, MNX1, KRT4, TP63) (AFG spheroids): dorsalized spheroids, as marked by elevated levels of SOX2, MNX1, KRT4, and TP63
